As a reminder, the MIC is the lowest concentration found to suppress growth. Low readings indicate greater potency, high ones weaker potency. Broadly, the MBC is the smallest concentration meeting the test's criterion for killing. A lower MBC goes with more potent killing.

From publication PMC10812672, “Short Antimicrobial Peptide Derived from the Venom Gland Transcriptome of Pamphobeteus verdolaga Increases Gentamicin Susceptibility of Multidrug-Resistant Klebsiella pneumoniae” (Antibiotics, 2023) come the findings set out here.

The test system of this experiment is S. aureus ATCC® 29213. The experiment is classed as cell-based, Staphylococcus aureus. The protocol: The nine AMPs identified in the initial screening were evaluated at concentrations between 1.56–200 µM, against E. coli ATCC® 25922, S. aureus ATCC® 29213, E. faecalis ATCC® 49532, P. aeruginosa ATCC® 9027, and K. pneumoniae ATCC® BAA-1705 (Supplementary Figures S2–S6). […] Only PvAMP66 and PvAMP172 reached the MBC for S. aureus at 50 µM and 100 µM, respectively (Table 2).
The evaluation of the antimicrobial activity of the peptides was conducted using the CLSI’s broth microdilution method for bacterial susceptibility testing. For the screening phase, peptides were evaluated at a single 30 μM concentration, in triplicate and in three independent assays, against the E. coli ATCC® 8739, E. coli ATCC® 25922, S. aureus ATCC® 6538, or S. aureus ATCC® 29213 reference USP and CLSI strains. For the determination of MIC, MBC, or IC50, peptides or antibiotics were evaluated in concentrations between 1.56–200 µM. These evaluations were conducted in triplicate and in three independent assays, against the E. coli ATCC® 25922, S. aureus ATCC® 29213, E. faecalis ATCC® 49532, P. aeruginosa ATCC® 9027, and K. pneumoniae ATCC® BAA-1705, or the clinically isolated MDR strain. In detail, 1 mL of a glycerol stock solution of the ATCC® or clinically isolated bacterial strain was added to 9 mL of Mueller-Hinton Broth and incubated for 18 h, 180 rpm and 37 °C (Incubator 1000, Heidolph Instruments, Schwabach, Germany). After the incubation, 1 mL of the previous solution was transferred to a new recipient containing 9 mL of fresh Mueller-Hinton broth and incubated for 4 h, 180 rpm and 37 °C (Incubator 1000, Heidolph Instruments, Schwabach, Germany). During the second incubation, the peptides or the antibiotics were dissolved in PBS pH 7.20 in concentrations between 19.53–2500 µM (MC5 Micro Balance, Sartorius AG, Göttingen, Germany). An amount of 10 µL of either peptide or antibiotic was dispensed in triplicate in 96-well flat bottom culture plates, along with 10 µL of PBS (Negative activity control), BTM-P1 (Positive activity control), or 10 µL of Mueller-Hinton broth (Blank); then, 110 µL of Mueller-Hinton broth was poured in all wells. Following this, the bacteria were suspended in Mueller-Hinton broth up to a concentration of approximately 1.50 × 10^8 CFU/mL, as measured by optical density at 600 nm between 0.06 to 0.11 (0.5 McFarland standard), in a Multiskan SkyHigh spectrophotometer (ThermoFisher Scientific, Waltham, MA, USA). Amounts of 5 µL of the 1.50 × 10^8 CFU/mL suspension were added to each well (except for the blank) for a final well concentration of approximately 6 × 10^6 CFU/mL. The plate was incubated for 24 h at 37 °C (BE 500, Memmert GmbH, Büchenbach, Germany) and optical density was measured at 600 nm in a Multiskan SkyHigh spectrophotometer (ThermoFisher Scientific, Waltham, MI, USA). Following the measurement of optical density, plates were visually inspected to determine the MIC. Subsequently, 100 µL of the concentration associated to the MIC and 100 µL of the next higher concentration were added to Petri dishes containing Mueller-Hinton Agar. The dishes were then incubated for 24 h at 37 °C (BE 500, Memmert GmbH, Büchenbach, Germany). After incubation, the Petri dishes were visually inspected, and the MBC was determined in the absence of growth. IC50 values were interpolated from regressions with correlation values above 0.70. Growth inhibition percentages were calculated as follows: Growth inhibition %=1−AbsPEPTIDE or ANTIBIOTIC−Median AbsBLANK/Median AbsPBS−Median AbsBLANK×100

Ends that are not written are not given here.

For the setting “1.56–200 µM, 24 h 37 °C, visual inspection, triplicate, three independent assays”, WKKIKKFF-NH2 [PvAMP66] showed an MIC of 25 µM. For the same substance, the minimum bactericidal concentration (MBC) (plating on Mueller-Hinton agar, absence of growth) was determined as 50 µM.
